In US4644085A, “Rooperol and its derivates” (Rooperol (NA) NV, priority 1985, dated 1987):
In brackets after ≈: the same amount, converted by molar mass.

Assays:
[1] = tested on: HUMAN CERVICAL CANCER HeLa ATCC No. CCL2; experiment: Inhibition of cell growth: human cervical cancer HeLa; format: cell-based; settings: 96 h, media, usually four days, read-out: MINIMUM INHIBITORY CONCENTRATIONS (RANGE) WHICH PRODUCE APPROXIMATELY 50% CELL GROWTH REDUCTION
Method: (§1) The cell cultures were grown under standard conditions at 37° C. in Eagle's Minimal Essential Medium (M.E.M., Gibco), with glutamine and non-essential amino acids, supplemented with 10% foetal calf serum (State Vaccine Institute, Cape Town). Cells for subcultures were obtained from 90-100% confluent cell cultures by trypsinisation with Ca^++ Mg^++ --free EDTA-Dulbecco Buffer, containing 0.25% trypsin. Trypsin was inactivated by placing the harvested cell suspension into M.E.M. containing 10% foetal calf serum. The cell suspensions were then suitably diluted to the final volume, depending on the number of cells obtained and the growth profile of the cell type. The diluted cell suspensions were then dispensed at the rate of 1.0 ml into prepared cell culture flasks containing 8.9 ml culture media. These cultures were incubated for 24 hours and the media changed before adding the test compounds.
(§2) The test compounds were dissolved in dimethylsulphoxide (Merck) and added at the rate of 0.1 ml to the media in a dilution to give the desired end concentration.
(§3) In each series of experiments, control cultures were treated with equivalent amounts of solvent without the test compound. The cultures were examined daily usually for a period of four days and cell growth and other cytopathic effects were records. Abnormal cell patterns and sizes were also determined during counting.
(iv) HeLa Human Cervical Cancer

[2] = tested on: cancer; settings: reported in EPO Patent Application No. 83103765.0; cited from earlier work
[3] = tested on: HUMAN […] HOC; experiment: Inhibition of cell growth: human oesophagal carcinoma HOC; format: cell-based; settings: 96 h, read-out: MINIMUM INHIBITORY CONCENTRATIONS (RANGE) WHICH PRODUCE APPROXIMATELY 50% CELL GROWTH REDUCTION
Method: as §1, §2, §3
(iii) HOC Human Oesophagal Carcinoma

[4] = tested on: MOUSE SARCOMA M(52)B; experiment: Inhibition of cell growth: mouse sarcoma M(52)B; format: cell-based; settings: 96 h, media, usually four days, read-out: MINIMUM INHIBITORY CONCENTRATIONS (RANGE) WHICH PRODUCE APPROXIMATELY 50% CELL GROWTH REDUCTION
Method: as §1, §2, §3
(i) M (52) B Mouse Sarcoma

[5] = tested on: "LOOT'S" CELLS HUMAN ADENOCARCINOMA; experiment: Inhibition of cell growth: "Loot's" cells human adenocarcinoma; format: cell-based; settings: 96 h, media, usually four days, read-out: MINIMUM INHIBITORY CONCENTRATIONS (RANGE) WHICH PRODUCE APPROXIMATELY 50% CELL GROWTH REDUCTION
Method: as §1, §2, §3
(vi) "Loots" cells Human Derived Adenocarcinoma

[6] = tested on: CHANG CO[…] No. CCL20.2; experiment: Inhibition of cell growth: Chang conjunctival; format: cell-based; settings: 96 h, read-out: MINIMUM INHIBITORY CONCENTRATIONS (RANGE) WHICH PRODUCE APPROXIMATELY 50% CELL GROWTH REDUCTION
Method: as §1, §2, §3
(vii) Chang Chang Conjunctival cells

[7] = Acute toxicity in mice; settings: mouse, in vivo, po, P.O., single dose in vegetable oil, 7 days observation, read-out: MINIMUM TOLERATED SINGLE DOSE
Method: (§4) Some compounds were subjected to preliminary acute toxicity tests in mice and rats. Solutions or suspensions of the selected compounds were prepared in vegetable oil. The volumes administered were kept constant at 10.0 ml per kg. In each case equal numbers of male and female animals were treated with a single dose. All animals were observed over 7 days for signs of toxic and/or pharmacodynamic effects. Necropsies were performed on all surviving animals.

[8] = tested on: P27-HUMAN MESOTHELIOMA; experiment: Inhibition of cell growth: P27 human mesothelioma; format: cell-based; settings: 96 h, media, usually four days, read-out: MINIMUM INHIBITORY CONCENTRATIONS (RANGE) WHICH PRODUCE APPROXIMATELY 50% CELL GROWTH REDUCTION
Method: as §1, §2, §3
(v) P27 Human Mesothelioma Cells

[9] = Acute toxicity in rats; settings: rat, in vivo, po, P.O., single dose in vegetable oil, 7 days observation, read-out: MINIMUM TOLERATED SINGLE DOSE
Method: as §4

[10] = tested on: MOUSE MELANOMA B16-BL6; experiment: Inhibition of cell growth: mouse melanoma B16-BL6; format: cell-based; settings: 96 h, media, usually four days, read-out: MINIMUM INHIBITORY CONCENTRATIONS (RANGE) WHICH PRODUCE APPROXIMATELY 50% CELL GROWTH REDUCTION
Method: as §1, §2, §3
(ii) Mel B16 BL06 Mouse Melanoma

`C=CC(O)C#Cc1ccccc1` (centres unmarked) [Product 20] gave an IC50 [1] of 25 to 50 µg/mL (≈ 158 to 316 µM).
In the case of `OC[C@H]1O[C@@H](Oc2ccc(C#CC/C=C/c3ccc(O[C@@H]4O[C@H](CO)[C@@H](O)[C@H](O)[C@H]4O)c(O)c3)cc2O)[C@H](O)[C@@H](O)[C@@H]1O` [Hypoxoside, (E)-1,5-bis(3',4'-dihydroxyphenyl)pent-4-en-1-yne 4',4'-di-B-D-glucopyranoside], the anticancer activity [2] is listed as “has anticancer activity”.
With `Brc1ccc(C#CC/C=C/c2ccccc2)cc1` [Product 10] the IC50 [1] was 25 to 50 µg/mL (≈ 84.1 to 168 µM).
For `COc1ccc(C#CC/C=C/c2ccccc2)cc1` [Product 6], the IC50 [3] was 10 to 20 µg/mL (≈ 40.3 to 80.5 µM) and the IC50 [1] was 60 to 100 µg/mL (≈ 242 to 403 µM).
In the case of `OCC#CC/C=C/c1ccccc1` [Product 31], the IC50 [1] is reported as 25 to 50 µg/mL (≈ 145 to 290 µM).
`CCOC(=O)C(=Cc1ccccc1)CC#Cc1ccccc1` [Product 23] showed an IC50 [4] of 75 to 100 µg/mL (≈ 258 to 344 µM), an IC50 [3] of 20 to 50 µg/mL (≈ 68.9 to 172 µM) and an IC50 [1] of 60 to 100 µg/mL (≈ 207 to 344 µM). The IC50 [5] was 25 to 50 µg/mL (≈ 86.1 to 172 µM), the IC50 [6] was 25 to 75 µg/mL (≈ 86.1 to 258 µM) and the MTD at 168 h [7] was 750 mg/kg.
With `C=CC(=O)C#Cc1ccccc1` [Product 26] the IC50 [1] was 20 to 40 µg/mL (≈ 128 to 256 µM) and the IC50 [6] was 2.5 to 10 µg/mL (≈ 16 to 64 µM).
`OC(C#Cc1ccccc1)/C=C/c1ccco1` (centres unmarked) [Product 17] gave an IC50 [1] of 20 to 25 µg/mL (≈ 89.2 to 111 µM), an IC50 [8] of 20 to 50 µg/mL (≈ 89.2 to 223 µM) and an MTD at 168 h [7] of 500 mg/kg. It also gave an MTD at 168 h [9] of 500 mg/kg.
In the case of `C(#Cc1ccccc1)C/C=C/c1ccccc1` [Product 3], the IC50 [4] is reported as 50 to 75 µg/mL (≈ 229 to 344 µM), the IC50 [3] is reported as 25 to 50 µg/mL (≈ 115 to 229 µM) and the IC50 [1] is reported as 40 to 60 µg/mL (≈ 183 to 275 µM). It also gave an IC50 [8] of 25 to 50 µg/mL (≈ 115 to 229 µM), an MTD at 168 h [7] of 500 mg/kg and an MTD at 168 h [9] of 1500 mg/kg.
In the case of `C=CCC#CCOC1CCCCO1` (centres unmarked) [Product 13], the IC50 [1] is reported as 50 to 100 µg/mL (≈ 277 to 555 µM).
`C/C=C/C(O)C#CCO` (centres unmarked) [Product 29] gave an IC50 [1] of 50 µg/mL (≈ 396 µM).
For `COc1ccc(C#CC/C=C/c2ccc(OC)cc2)cc1` [Product 5], the IC50 [3] was ≥ 25 µg/mL.
Work on `C/C=C/C(O)C#CCOC1CCCCO1` (centres unmarked) [Product 21] yielded an IC50 [1] of 25 to 50 µg/mL (≈ 119 to 238 µM).
`COc1ccc(C#CC/C=C/c2ccccc2)cc1OC` [Product 9] gave an IC50 [1] of 60 to 100 µg/mL (≈ 216 to 359 µM).
For `COc1ccc(C#CC/C=C/c2ccc(OC)c(OC)c2)cc1OC` [Product 8], the IC50 [4] was 60 to 80 µg/mL (≈ 177 to 236 µM), the IC50 [1] was 60 to 100 µg/mL (≈ 177 to 296 µM) and the IC50 [8] was 40 to 60 µg/mL (≈ 118 to 177 µM).
Molecule `C(#Cc1ccc2c(c1)OCO2)C/C=C/c1ccc2c(c1)OCO2` [Product 7] has an IC50 [4] of 60 to 80 µg/mL (≈ 196 to 261 µM).
Work on `OC(C#Cc1ccccc1)C=C(Cl)c1ccccc1` (centres unmarked) [Product 19] yielded an IC50 [1] of 20 to 40 µg/mL (≈ 74.4 to 149 µM) and an MTD at 168 h [7] of 250 mg/kg.
In the case of `C(#Cc1ccccc1)CC1CO1` (centres unmarked) [Product 24], the IC50 [1] is reported as 25 to 50 µg/mL (≈ 158 to 316 µM).
Molecule `COc1ccc(C#CC(O)/C=C/c2ccccc2)cc1OC` (centres unmarked) [Product 18] has an IC50 [1] of 25 to 50 µg/mL (≈ 84.9 to 170 µM).
With `C=CCC#CCO` [Product 30] the IC50 [1] was 50 µg/mL (≈ 520 µM).
Work on `OC(C#Cc1ccccc1)/C=C/c1ccccc1` (centres unmarked) [Product 16] yielded an IC50 [4] of 20 to 40 µg/mL (≈ 85.4 to 171 µM), an IC50 [10] of 20 to 50 µg/mL (≈ 85.4 to 213 µM) and an IC50 [1] of 25 to 50 µg/mL (≈ 107 to 213 µM). For the same molecule, the IC50 [8] was 25 to 50 µg/mL (≈ 107 to 213 µM), the IC50 [5] was 12.5 to 25 µg/mL (≈ 53.4 to 107 µM) and the MTD at 168 h [7] was 500 mg/kg. It also gave an MTD at 168 h [9] of 500 mg/kg.
In the case of `OC(CCl)CC#Cc1ccccc1` (centres unmarked) [Product 11], the IC50 [1] is reported as 25 to 50 µg/mL (≈ 128 to 257 µM) and the MTD at 168 h [7] is reported as ≥ 1000 mg/kg.
Work on `Oc1ccc(C#CC/C=C/c2ccc(O)c(O)c2)cc1O` [Product 1, 3',3',4',4',-tetrahydroxyrooperol] yielded an IC50 [4] of 12.5 to 25 µg/mL (≈ 44.3 to 88.6 µM), an IC50 [10] of 10 to 25 µg/mL (≈ 35.4 to 88.6 µM) and an IC50 [3] of 25 to 50 µg/mL (≈ 88.6 to 177 µM). The IC50 [1] was 20 to 40 µg/mL (≈ 70.8 to 142 µM), the IC50 [8] was 10 to 25 µg/mL (≈ 35.4 to 88.6 µM) and the IC50 [5] was 12.5 to 25 µg/mL (≈ 44.3 to 88.6 µM). It also gave an IC50 [6] of 20 to 25 µg/mL (≈ 70.8 to 88.6 µM).
Molecule `COc1ccc(C#CC(O)/C=C/c2ccco2)cc1OC` (centres unmarked) [Product 15] has an IC50 [1] of 25 to 50 µg/mL (≈ 87.9 to 176 µM).
In the case of `C=CCC#Cc1ccccc1` [Product 2], the IC50 [3] is reported as 50 to 100 µg/mL (≈ 352 to 703 µM), the IC50 [1] is reported as 50 to 75 µg/mL (≈ 352 to 527 µM) and the MTD at 168 h [7] is reported as ≥ 1000 mg/kg. For the same molecule, the MTD at 168 h [9] was 500 mg/kg.
For `O=C(C#Cc1ccccc1)/C=C/c1ccccc1` [Product 25], the IC50 [10] was 12.5 to 25 µg/mL (≈ 53.8 to 108 µM), the IC50 [1] was 5 to 10 µg/mL (≈ 21.5 to 43.1 µM) and the IC50 [6] was 2.5 to 10 µg/mL (≈ 10.8 to 43.1 µM).
